Test results published in DBAASP.
≈ marks a conversion by molar mass, not a printed value.

What was measured:
Assay in all cases: ≥ marks a high value that may be exact or a test limit, other limits are often not marked, values filed in µg/mL are converted to µM
[1] = tested on: Staphylococcus epidermidis ATCC 12228
[2] = tested on: Escherichia coli ML-35
[3] = tested on: Bacillus subtilis ATCC 23857
[4] = tested on: Staphylococcus aureus ATCC 29213
[5] = tested on: Escherichia coli ATCC 25922
[6] = tested on: Streptococcus mutans
[7] = tested on: Enterococcus faecalis ATCC 29212
[8] = tested on: Salmonella enterica subsp. enterica serovar Pullorum C79-13
[9] = tested on: Salmonella enterica subsp. enterica serovar Typhimurium C77-31
[10] = tested on: Candida albicans ATCC 2002
[11] = tested on: Pseudomonas aeruginosa CMCCB 10104
[12] = tested on: Staphylococcus aureus ATCC 25923
[13] = tested on: Staphylococcus aureus
[14] = tested on: Candida albicans
[15] = tested on: Escherichia coli
[16] = tested on: Bacillus subtilis

Structure (SMILES) | MIC [1] | MIC [2] | MIC [3] | MIC [4] | MIC [5] | MIC [10] | MIC [11] | MIC [12] | other results
CC[C@H](C)[C@H](N)C(=O)N[C@@H](CC(C)C)C(=O)NCC(=O)N[C@H](C(=O)N[C@H](C(=O)N[C@@H](CC(C)C)C(=O)NCC(=O)N1CCC[C@H]1C(=O)N[C@@H](CC(C)C)C(=O)N[C@@H](CCCCN)C(=O)NCC(=O)N[C@@H](CC(C)C)C(N)=O)[C@@H](C)CC)[C@@H](C)O [ILGTILGPLKGL] | > 256 µM | ≥ 256 µM | ≥ 256 µM | > 256 µM | > 256 µM | – | – | – | –
CC[C@H](C)[C@H](N)C(=O)N[C@@H](CC(C)C)C(=O)NCC(=O)N[C@H](C(=O)N[C@H](C(=O)N[C@@H](CC(C)C)C(=O)N1CCC[C@H]1C(=O)N[C@@H](CC(C)C)C(=O)N[C@@H](CC(C)C)C(=O)N[C@@H](CCCCN)C(=O)NCC(=O)N[C@@H](CC(C)C)C(N)=O)[C@@H](C)CC)[C@@H](C)O [ILGTILPLLKGL] | > 256 µM | ≥ 256 µM | ≥ 256 µM | > 256 µM | > 256 µM | – | – | – | –
CC[C@H](C)[C@H](NC(=O)[C@H](CC(N)=O)NC(=O)[C@H](CCCCN)NC(=O)[C@H](CC(C)C)NC(=O)[C@H](CCC(N)=O)NC(=O)[C@H](CCC(N)=O)NC(=O)[C@@H](NC(=O)[C@H](CC(C)C)NC(=O)[C@@H](N)CCCCN)C(C)C)C(=O)N[C@@H](Cc1ccccc1)C(=O)N[C@@H](CCCN=C(N)N)C(=O)O [KLVQQLKNIFR] | – | – | – | – | – | – | – | – | MIC [6]: ≥ 90.1 µM
CC(C)C[C@H](NC(=O)[C@@H](NC(=O)[C@@H](NC(=O)[C@@H](N)CC(C)C)C(C)C)[C@@H](C)O)C(=O)N[C@H](C(=O)N[C@@H](Cc1ccccc1)C(=O)N[C@H](C(=O)O)C(C)C)C(C)C [LVTLVFV] | > 128 µM | – | – | > 128 µM | > 128 µM | – | – | – | MIC [7]: > 128 µM; MIC [8]: ≥ 128 µM; MIC [9]: ≥ 128 µM
CSCC[C@H](NC(=O)[C@H](CCC(=O)O)NC(=O)[C@H](CS)NC(=O)[C@H](C)NC(=O)[C@@H](NC(=O)CNC(=O)[C@H](C)NC(=O)[C@@H](NC(=O)[C@H](Cc1ccccc1)NC(=O)[C@@H]1CCCN1C(=O)[C@H](CC(C)C)NC(=O)[C@@H](N)CCC(N)=O)C(C)C)C(C)C)C(=O)N[C@@H](CS)C(=O)N[C@@H](CCC(N)=O)C(=O)N[C@@H](CS)C(=O)N[C@H](C(=O)N[C@@H](Cc1ccc(O)cc1)C(=O)N[C@H]1CSSC[C@@H](C(=O)O)NC(=O)[C@H](CCCCN)NC(=O)[C@H](CCCCN)NC(=O)[C@H](CO)NC(=O)[C@H](C)NC(=O)[C@H](C)NC1=O)C(C)C [QLPFVAGVACEMCQCVYCAASKKC] | – | – | – | – | 2.23 µM (≈ 5.7 µg/mL) | 4.47 µM (≈ 11.4 µg/mL) | 2.23 µM (≈ 5.7 µg/mL) | 4.47 µM (≈ 11.4 µg/mL) | –
CC[C@H](C)[C@H](NC(=O)[C@@H](N)C(C)C)C(=O)N1CCC[C@H]1C(=O)N[C@@H](Cc1ccccc1)C(=O)N[C@H](C(=O)N[C@@H](C)C(=O)N[C@@H](CO)C(=O)N[C@H](C(=O)N[C@@H](C)C(=O)N[C@@H](C)C(=O)N[C@@H](CCC(=O)O)C(=O)N[C@@H](CCSC)C(=O)N[C@@H](CCSC)C(=O)N[C@@H](CCC(N)=O)C(=O)N[C@@H](Cc1cnc[nH]1)C(=O)N[C@H](C(=O)N[C@@H](Cc1ccc(O)cc1)C(=O)N[C@H]1CSSC[C@@H](C(=O)O)NC(=O)[C@H](CCCCN)NC(=O)[C@H](CCCCN)NC(=O)[C@H](CO)NC(=O)[C@H](C)NC(=O)[C@H](C)NC1=O)C(C)C)C(C)C)C(C)C [VIPFVASVAAEMMQHVYCAASKKC] | – | – | – | – | 4.02 µM (≈ 10.4 µg/mL) | 4.02 µM (≈ 10.4 µg/mL) | 2.01 µM (≈ 5.2 µg/mL) | 8.05 µM (≈ 20.8 µg/mL) | MIC [13]: 1.35 µM (≈ 3.5 µg/mL); MIC [14]: 0.677 µM (≈ 1.75 µg/mL); MIC [15]: 1.35 µM (≈ 3.5 µg/mL); MIC [16]: 0.677 µM (≈ 1.75 µg/mL)
